What was measured:
[1] = system: pentosidine formation; assay: AGEs (pentosidine) formation inhibiting effect in plasma from dialysis patients; format: biochemical, human
Experimental: Before dialysis, blood samples were obtained from non-diabetic volunteer dialysis patients with renal failure, and fresh heparinized plasma samples were prepared therefrom Pooled plasma obtained from several patients (n=3˜5) was served to the test. 4-(5-phenyltetrazol-1-ylmethyl)-morpholine (Compound 1), 5-methyl-1-(5-phenyltetrazol-1-ylmethyl)-3a,6a-dihydro-1H-pyrrolo[3,4-d][1,2,3]triazole-4,6-dione (Compound 2) or (5-phenyltetrazol-1-yl)methanol (Compound 3) adjusted to a designed concentration ([…]), in DMSO solution (100 μl), was added to the pooled plasma (900 μl) and incubated at 37° C. for 7 days in the presence of air. Then, the amount of pentosidine was measured to estimate the suppressive effect on the glycation of protein.
Measurement of the amount of pentosidine was made as follows: to each incubated sample (50 μL) was added an equal volume of 10% trichloroacetic acid, followed by centrifugation at 5000 g for 5 minutes; after removal of the supernatant, the pellet was washed by 5% trichloroacetic acid (300 μL); the pellet was dried under reduced pressure and then subjected to hydrolysis in 6N HCI solution (100 μL) at 110° C. under nitrogen atmosphere for 16 hours; to the hydrolysate, 5N NaOH (100 μL) and 0.5 M phosphate buffer (pH 7.4) (200 μL) were added, followed by filtration through a porefilter with a pore size of 0.5 μm and dilution with PBS. The concentration of free pentosidine was determined by reversed-phase HPLC using a fluorescence detector (RF-10A, Shimazu Seisakusho) (Miyata, T. et al.: Proc. Natl. Acad. Sci. USA, 93, 2353-2358, 1996). The effluent was monitored at 335/385 nm of excitation/emission wavelength. Synthetic pentosidine was used as the standard. The detection limit of pentosidine was 0.1 pmol/mg protein.
The inhibiting effect was estimated by comparing with positive control (aminoguanidine and pyridoxamine (Sigma)) reacted in the same manner as 4-(5-phenyltetrazol-1-yl-methyl)-morpholine (Compound 1), 5-methyl-1-(5-phenyltetrazol-1-ylmethyl)-3a,6a-dihydro-1H-pyrrolo[3,4-d][1,2,3]triazole-4,6-dione (Compound 2) and (5-phenyltetrazol-1-yl)methanol (Compound 3).

[2] = system: ICR mice; assay: Acute toxicity examination, single oral administration to mouse; settings: in vivo, po
Experimental: (§1) For 4-(5-phenyltetrazol-1-ylmethyl)-morpholine (compound 1) and (5-phenyltetrazol-1-yl) methanol (compound 3), acute toxicity test was carried out using mice. Each compounds were suspended in carboxymethyl cellulose in given concentration to prepare sample for oral administration. Then single oral administration was done to mouse. The dose is 100, 250, 500, 1000 and 2000 mg/kg. Five ICR mice (male , 8 weeks aged, closed colony) were used in each group. The test material was administrated to determine LD50 value.

[3] = as above; settings: male, in vivo, ICR mice, single oral administration
Experimental: as §1

[4] = Vitamin B6 (PLP; pyridoxal phosphate) trapping; format: biochemical; settings: 500 μM compound, 50 μM PLP, PBS
Experimental: To a solution of vitamin B6, the compound of this invention is added, and after a certain period of time, an amount of vitamin B6 remained is determined.
4-(5-phenyltetrazol-1-ylmethyl)-morpholine (Compound 1), 5-methyl-1-(5-phenyltetrazol-1-ylmethyl)-3a,6a-dihydro-1H-pyrrolo[3,4-d][1,2,3]triazol-4,6-dione (Compound 2) and (5-phenyltetrazol-1-yl)methanol (Compound 3) as well as aminoguanidine as the positive control were each dissolved in DMSO in a designed concentration to make a sample solution. DMSO itself was used as the negative control. In addition, pyridoxal phosphate (PLP) was dissolved in purified-water to make a designed concentration. PBS was added to each of the test compound, the positive control and the negative control, to make a final concentration of 500 μM. The PLP solution as above prepared was added to each of the resultant solution to make a final concentration of 50 μM for preparation of the PLP reaction solution. Using HPLC, the amount of PLP in the PLP reaction solution was determined after 0.1 and 10 hours, from which the PLP trapping amount of each test compound was ascertained.
The analysis of PLP using HPLC was carried out by separation with reverse-phase C18 column (4.6×250 mm, 5 μm; Waters) and by using a fluorescence detector (RF-10A; Shimazu Seisakusho; excitation wavelength, 300 nm and fluorescence wavelength, 400 nm). In the mobile phase, the flow rate was 0.6 mL/min and the concentration of buffer B was varied from 0% to 3% in 25 minutes (buffer A: 0.10% trifluoroacetic acid; buffer B: 80% acetonitrile containing 0.08% trifluoroacetic acid).

Compound: c1ccc(-c2nnnn2CN2CCOCC2)cc1 [Compound 1, 4-(5-phenyltetrazol-1-ylmethyl)-morpholine]
- Pentosidine formation ([1]; 5 mM, plasma from dialysis patients, 37° C., 7 days, DMSO negative control 2.960): 0.367 nmol/mL
- pentosidine formation suppression ([1]; plasma from the patients with dialysis): suppressed remarkably
- toxicity [2]: lower toxicity
- LD50 [3]: > 1000 mg/kg
- PLP trapping [4]: none

Reference: patent US20070161691A1, “Modified-protein formation inhibitor” (TOKAI UNIVERSITY, priority 2003, published 2007)
